According to patent US8106091B2, “Inhibitors of IKK-beta serine-threonine protein kinase” (Chroma Therapeutics Ltd., priority 2006, dated 2012):

Biological target: T1, IKBKB (IKKβ) (Homo sapiens, UniProt O14920)
T1 construct: purchased Invitrogen (Paisley, UK)
T1 sequence (O14920 1-756): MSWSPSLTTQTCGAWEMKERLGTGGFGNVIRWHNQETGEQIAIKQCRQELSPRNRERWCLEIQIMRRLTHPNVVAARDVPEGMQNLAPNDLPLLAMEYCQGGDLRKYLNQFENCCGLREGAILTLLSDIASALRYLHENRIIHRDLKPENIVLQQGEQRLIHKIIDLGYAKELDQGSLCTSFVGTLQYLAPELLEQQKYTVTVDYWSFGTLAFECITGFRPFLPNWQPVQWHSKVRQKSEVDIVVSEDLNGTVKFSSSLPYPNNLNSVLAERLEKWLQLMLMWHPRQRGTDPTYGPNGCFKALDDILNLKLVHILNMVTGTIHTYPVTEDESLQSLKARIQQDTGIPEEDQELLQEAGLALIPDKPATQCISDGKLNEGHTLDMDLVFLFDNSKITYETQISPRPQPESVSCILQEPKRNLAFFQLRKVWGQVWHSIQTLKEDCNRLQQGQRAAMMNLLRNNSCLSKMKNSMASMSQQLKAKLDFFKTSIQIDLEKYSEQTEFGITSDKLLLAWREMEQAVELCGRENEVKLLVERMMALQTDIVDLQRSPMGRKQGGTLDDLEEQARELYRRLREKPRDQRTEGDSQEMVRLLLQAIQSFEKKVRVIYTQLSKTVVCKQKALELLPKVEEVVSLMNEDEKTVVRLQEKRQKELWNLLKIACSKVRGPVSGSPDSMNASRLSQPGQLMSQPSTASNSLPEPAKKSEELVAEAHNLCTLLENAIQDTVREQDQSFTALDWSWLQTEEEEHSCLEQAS
Assay: IKKβ enzyme assay (Z'-LYTE, Invitrogen)
Assay type: biochemical
Conditions: ATP at or close to Km; read-out: Inhibitor activity versus IKKβ
Procedure: The ability of compounds to inhibit IKKβ kinase activity was measured in an assay performed by Invitrogen (Paisley, UK). The Z′-LYTE™ biochemical assay employs a fluorescence-based, coupled-enzyme format and is based on the differential sensitivity of phosphorylated and non-phosphorylated peptides to proteolytic cleavage. The peptide substrate is labelled with two fluorophores—one at each end—that make up a FRET pair. In the primary reaction, the kinase transfers the gamma-phosphate of ATP to a single serine or threonine residue in a synthetic FRET-peptide. In the secondary reaction, a site-specific protease recognizes and cleaves non-phosphorylated FRET-peptides. Phosphorylation of FRET-peptides suppresses cleavage by the Development Reagent. Cleavage disrupts FRET between the donor (i.e., coumarin) and acceptor (i.e. fluorescein) fluorophores on the FRET-peptide, whereas uncleaved, phosphorylated FRET-peptides maintain FRET. A […] method, which calculates the ratio (the Emission Ratio) of donor emission to acceptor emission after excitation of the donor fluorophore at 400 nm, is used to quantitate reaction progress.
The final 10 μL Kinase Reaction consists of 0.9-8.0 ng IKBKB (IKKβ), 2 μM Ser/Thr 05 Peptide and ATP in 50 mM HEPES pH 7.5, 0.01% BRIJ-35, 10 mM MgCl2, 1 mM EGTA. The assay is performed at an ATP concentration at, or close to the Km. After the 60 minute Kinase Reaction incubation at room temperature, 5 μL of a 1:128 dilution of Development Reagent is added. The assay plate is incubated for a further 60 minutes at room temperature and read on a fluorescence plate reader.
Duplicate data points are generated from a ⅓ log dilution series of a stock solution of test compound in DMSO. Nine dilutions steps are made from a top concentration of 10 μM, and a ‘no compound’ blank is included. Data is collected and analysed using XLfit software from IDBS. The dose response curve is curve fitted to model number 205 (sigmoidal dose-response model). From the curve generated, the concentration giving 50% inhibition is determined and reported.

For `NC(=O)Nc1sc(-c2ccc(/C=C/C[C@H](N)C(=O)O)cc2Cl)cc1C(N)=O` [Example 37, (2S,4E)-2-amino-5-{4-[4-carbamoyl-5-(carbamoylamino)-2-thienyl]-3-chlorophenyl}pent-4-enoic acid], the IC50 was < 1000 nM.

`Cc1cc(OCC[C@H](N)C(=O)O)ccc1-c1cc(C(N)=O)c(NC(N)=O)s1` [Example 29, O-{4-[4-carbamoyl-5-(carbamoylamino)-2-thienyl]-3-methylphenyl}-L-homoserine] was tested, and the IC50 was < 1000 nM.

`Cc1cc(-c2cc(C(N)=O)c(NC(N)=O)s2)ccc1/C=C/C[C@H](N)C(=O)O` [Example 38, (2S,4E)-2-amino-5-{4-[4-carbamoyl-5-(carbamoylamino)-2-thienyl]-2-methylphenyl}pent-4-enoic acid] was tested, and the IC50 was < 1000 nM.

For `Cc1cc(-c2cc(C(N)=O)c(NC(N)=O)s2)ccc1OCC[C@H](N)C(=O)O` [Example 30, O-{4-[4-carbamoyl-5-(carbamoylamino)-2-thienyl]-2-methylphenyl}-L-homoserine], the IC50 was < 1000 nM.

With `NC(=O)Nc1sc(-c2ccc(OCC[C@H](NC3CCCCC3)C(=O)O)cc2)cc1C(N)=O` [Example 43, O-{4-[4-carbamoyl-5-(carbamoylamino)thiophen-2-yl]phenyl}-N-cyclohexyl-L-homoserine] the IC50 was < 1000 nM.

`NC(=O)Nc1sc(-c2ccc(OCC[C@H](N)C(=O)O)cc2Cl)cc1C(N)=O` [Example 31, O-{4-[4-carbamoyl-5-(carbamoylamino)-2-thienyl]-3-chlorophenyl}-L-homoserine] was tested, and the IC50 was < 1000 nM.

With `NC(=O)Nc1cc(-c2ccc(C[C@H](N)C(=O)O)cc2)sc1C(N)=O` [Example 47, 4-[5-carbamoyl-4-(carbamoylamino)2-thienyl]-L-phenylalanine] the IC50 was < 1000 nM.

`NC(=O)Nc1sc(-c2ccc(N(CC[C@H](N)C(=O)O)Cc3ccccc3)cc2)cc1C(N)=O` [Example 45, (2S)-2-amino-4-(benzyl{4-[4-carbamoyl-5-(carbamoylamino)thiophen-2-yl]phenyl}amino)butanoic acid] was tested, and the IC50 was < 1000 nM.

For `NC(=O)Nc1sc(-c2ccc(C#CC[C@H](N)C(=O)O)cc2)cc1C(N)=O` [Example 39, (2S)-2-amino-5-{4-[4-carbamoyl-5-(carbamoylamino)-2-thienyl]phenyl}pent-4-ynoic acid], the IC50 was < 1000 nM.

For `NC(=O)Nc1sc(-c2ccc(/C=C\C[C@H](N)C(=O)O)cc2)cc1C(N)=O` [Example 42, (2S,4Z)-2-amino-5-{4-[4-carbamoyl-5-(carbamoylamino)-2-thienyl]phenyl}pent-4-enoic acid], the IC50 was < 1000 nM.

In the case of `NC(=O)Nc1sc(-c2ccc(OCCC[C@@H](N)C(=O)O)cc2)cc1C(N)=O` [Example 28, 5-{4-[4-carbamoyl-5-(carbamoylamino)-2-thienyl]phenoxy}-D-norvaline], the IC50 is reported as < 1000 nM.

In the case of `NC(=O)Nc1cc(-c2ccc(OCC[C@H](N)C(=O)O)cc2)sc1C(N)=O` [Example 46, O-{4-[5-carbamoyl-4-(carbamoylamino)-2-thienyl]phenyl}-L-homoserine], the IC50 is reported as < 1000 nM.

For `NC(=O)Nc1sc(-c2ccc(C[C@H](N)C(=O)O)cc2)cc1C(N)=O` [Example 40, 4-[4-carbamoyl-5-(carbamoylamino)-2-thienyl]-L-phenylalanine], the IC50 was < 1000 nM.

With `NC(=O)Nc1sc(-c2ccc(CCC[C@H](N)C(=O)O)cc2)cc1C(N)=O` [Example 35, 5-{4-[4-carbamoyl-5-(carbamoylamino)-2-thienyl]phenyl}-L-norvaline] the IC50 was < 1000 nM.

`NC(=O)Nc1sc(-c2ccc(COCC[C@H](N)C(=O)O)cc2)cc1C(N)=O` [Example 41, O-{4-[4-carbamoyl-5-(carbamoylamino)-2-thienyl]benzyl}-L-homoserine] was tested, and the IC50 was < 1000 nM.

For `NC(=O)Nc1sc(-c2ccc(OCC[C@H](N)C(=O)O)c(Cl)c2)cc1C(N)=O` [Example 32, O-{4-[4-carbamoyl-5-(carbamoylamino)-2-thienyl]-2-chlorophenyl}-L-homoserine], the IC50 was < 1000 nM.

With `NC(=O)Nc1sc(-c2ccc(OCCC[C@H](N)C(=O)O)cc2)cc1C(N)=O` [Example 27, 5-{4-[4-carbamoyl-5-(carbamoylamino)-2-thienyl]phenoxy}-L-norvaline] the IC50 was < 1000 nM.
